Results: patent publication US10508120B2, “TYK2 inhibitors and uses thereof” (Nimbus Lakshmi, Inc., priority 2017, dated 2019)
Like-named read-outs stand apart in the source and are kept apart here.

Columns and labels:
[1] = target: human TYK2 (JH2domain-pseudokinase) (Homo sapiens (Human), UniProt P29597); assay: TYK2 JH2 Domain Binding Assay (KINOMEscan)
In short: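 Kds, run in duplicate, came from Hill fits (slope fixed at −1) of an 11-point 3-fold dilution series starting at 30,000 nM. Bead-retained TYK2 JH2 (aa G556–D888)–NFkB DBD fusion, DNA-tagged and expressed in HEK293 cells, was read by qPCR after 1 h room-temperature binding in 0.9% DMSO.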

Tyk2 kinase domain (DH1) = Tyk2 kinase domain (DH1) (Homo sapiens (Human), UniProt P29597); assay: Tyk2 Radioactive Kinase Assay; format: biochemical; conditions: for inhibition at 10 µM: read-out: Tyk2 JH1% Inhibition @ 10 μM
Tyk2 kinase domain (DH1), sequence (P29597 897-1176): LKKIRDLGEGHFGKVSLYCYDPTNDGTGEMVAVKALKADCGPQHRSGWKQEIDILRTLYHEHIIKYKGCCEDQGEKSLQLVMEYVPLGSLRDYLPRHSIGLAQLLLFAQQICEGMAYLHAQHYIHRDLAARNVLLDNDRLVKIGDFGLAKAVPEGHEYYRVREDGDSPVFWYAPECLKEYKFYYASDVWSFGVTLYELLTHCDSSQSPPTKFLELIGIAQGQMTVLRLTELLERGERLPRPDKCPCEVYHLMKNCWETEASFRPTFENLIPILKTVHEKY
In short: (§1)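 Values are single-concentration percent inhibition figures. They were obtained with 10 μM compound in a radioactivity-based kinase assay run separately on each enzyme.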

JAK2 kinase domain (JH1) = JAK2 kinase domain (JH1) (Homo sapiens (Human), UniProt O60674); assay: JAK2 Radioactive Kinase Assay; format: biochemical; conditions: for inhibition at 10 µM: read-out: JAK2 JH1% Inhibition @ 10 μM
JAK2 kinase domain (JH1), sequence (O60674 849-1124): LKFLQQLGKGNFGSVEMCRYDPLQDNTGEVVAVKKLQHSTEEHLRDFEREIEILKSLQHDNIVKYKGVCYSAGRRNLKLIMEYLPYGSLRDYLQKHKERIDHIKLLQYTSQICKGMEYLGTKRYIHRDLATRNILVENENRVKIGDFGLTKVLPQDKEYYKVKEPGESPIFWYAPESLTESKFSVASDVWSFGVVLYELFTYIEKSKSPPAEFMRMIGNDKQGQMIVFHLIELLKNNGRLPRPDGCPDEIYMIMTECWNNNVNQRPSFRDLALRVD
In short: as §1

human TYK2 (JH2domain-pseudokinase), sequence (P29597 556-888): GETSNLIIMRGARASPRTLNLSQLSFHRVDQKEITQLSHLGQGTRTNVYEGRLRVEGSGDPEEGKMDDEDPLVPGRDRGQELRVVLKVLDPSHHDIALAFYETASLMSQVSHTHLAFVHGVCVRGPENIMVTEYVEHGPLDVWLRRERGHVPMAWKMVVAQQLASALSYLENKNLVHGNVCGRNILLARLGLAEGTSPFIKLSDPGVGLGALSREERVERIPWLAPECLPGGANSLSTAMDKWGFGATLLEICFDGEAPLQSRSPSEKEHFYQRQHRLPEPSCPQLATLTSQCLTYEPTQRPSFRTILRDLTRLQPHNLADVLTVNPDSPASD

| SMILES | Kd [1] [nM] | inhibition at 10 µM (Tyk2 kinase domain (DH1); compound at 10 μM, ATP 10 μM) [%] | inhibition at 10 µM (JAK2 kinase domain (JH1); compound at 10 μM, ATP 10 μM) [%] | other results |
| --- | --- | --- | --- | --- |
| CNc1cc(Nc2cccn([C@@H]3CCCN(CCC#N)C3)c2=O)nc2c(C(=O)N[C@@H]3C[C@@H]3F)cnn12 [I-1041] | 0.2 to 1 | – | – | inhibition at 10 µM (Tyk2 kinase domain (DH1); 10 μM compound, 10 μM ATP): < 50%; inhibition at 10 µM (JAK2 kinase domain (JH1); 10 μM compound, 10 μM ATP): < 50% |
| CNc1cc(Nc2cccn(-c3cnc(C)o3)c2=O)nc2c(C(=O)NC3CC3)cnn12 [I-717] | < 0.2 | < 50 | < 50 | – |
| [2H]C([2H])([2H])Oc1ncc(C)cc1Nc1cc(NC)n2ncc(C(=O)NC3CCC3)c2n1 [I-260, N-cyclobutyl-5-((2-(methoxy-d3)-5-methylpyridin-3-yl)amino)-7-(methylamino)pyrazolo[1,5-a]pyrimidine-3-carboxamide] | 0.2 to 1 | < 50 | < 50 | – |
| Cc1cc(-n2cccc(Nc3cc(N)n4ncc(C(N)=O)c4n3)c2=O)no1 [I-64] | 0.2 to 1 | < 50 | < 50 | – |
| CNc1cc(Nc2cccc(N3CCC4(CCCO4)CC3)n2)nc2c(C(=O)N[C@H]3C[C@H]3F)cnn12 [I-656] | < 0.2 | < 50 | < 50 | – |
| CNc1cc(Nc2cc(Cl)cnc2OC2CCC2)nc2c(C(N)=O)cnn12 [I-80] | 0.2 to 1 | < 50 | < 50 | – |
| CNc1cc(Nc2cccnc2OC(CO)CO)nc2c(C(=O)NC3CC3)cnn12 [I-199] | 0.2 to 1 | < 50 | < 50 | – |
| CNc1cc(Nc2cccn([C@@H]3CCC[C@H](OC)C3)c2=O)nc2c(C(=O)N[C@@H]3CC[C@H]3O)cnn12 [I-1054] | < 0.2 | – | – | inhibition at 10 µM (Tyk2 kinase domain (DH1); 10 μM compound, 10 μM ATP): < 50%; inhibition at 10 µM (JAK2 kinase domain (JH1); 10 μM compound, 10 μM ATP): < 50% |
| CNc1cc(Nc2cccn(-c3nc(C)c(C)s3)c2=O)nc2c(C(=O)NC3CCC3)cnn12 [I-293] | 0.2 to 1 | < 50 | < 50 | – |
| CNc1cc(Nc2cccn([C@@H]3CCCOC3)c2=O)nc2c(C(=O)N[C@@H]3CC[C@H]3O)cnn12 [I-727] | < 0.2 | < 50 | < 50 | – |
| CNc1cc(Nc2cccn(-c3cnco3)c2=O)nc2c(C(=O)NC3CC3)cnn12 [I-714] | < 0.2 | < 50 | < 50 | – |
| CNc1cc(-c2cn(CCN3CCOCC3)c3ncccc23)nc2c(C(=O)N[C@@H]3CC[C@@H]3O)cnn12 [I-779] | 0.2 to 1 | – | – | Tyk2 JH1% Inhibition @ 10 μM (Tyk2 kinase domain (DH1); compound at 10 μM, ATP 10 μM): A (percent inhibition at 10 μM lower than 50); JAK2 JH1% Inhibition @ 10 μM (JAK2 kinase domain (JH1); compound at 10 μM, ATP 10 μM): A (percent inhibition at 10 μM lower than 50) |
| CNc1cc(Nc2cc(C)nc(N3CC[C@@H](O)C3)c2)nc2c(C(N)=O)cnn12 [I-60] | 1 to 10 | < 50 | < 50 | – |
| CNc1cc(Nc2cccc(C3CCCCO3)n2)nc2c(C(=O)NCC3(CO)CC3)cnn12 (stereo not drawn) [I-530] | 0.2 to 1 | < 50 | < 50 | – |
| CNc1cc(Nc2cc(F)cn(C3CCCOC3)c2=O)nc2c(C(=O)NC3CC3)cnn12 (stereo not drawn) [I-494] | 0.2 to 1 | < 50 | < 50 | – |
| CNc1cc(-c2cn(CCN3CCN(C)CC3)c3ncccc23)nc2c(C(=O)NC3CC3)cnn12 [I-616] | < 0.2 | < 50 | < 50 | – |
| CNc1cc(Nc2cccc([C@@H]3CCCCO3)n2)nc2c(C(=O)N[C@@H]3CC[C@@H]3O)cnn12 [I-610] | < 0.2 | < 50 | < 50 | – |
| CNc1cc(-n2cc(N3CCOCC3)c3ncccc32)nc2c(C(=O)NC3CC3)cnn12 [I-554] | 1 to 10 | < 50 | < 50 | – |
| NC(=O)c1cnn2c(N)cc(Nc3cccc(N4CCCC4=O)n3)nc12 [I-58] | < 0.2 | < 50 | 50 to 70 | – |
| CNc1cc(Nc2cccc(N3CC4(CCO4)C3)n2)nc2c(C(=O)N[C@H]3CC[C@H]3O)cnn12 [I-758] | 0.2 to 1 | < 50 | < 50 | – |
| CNc1cc(Nc2cccc(N3CCC34COC4)n2)nc2c(C(=O)NC3CC3)cnn12 [I-708] | < 0.2 | < 50 | < 50 | – |
| CNc1cc(Nc2cccn(-c3cccc(C(C)(C)O)n3)c2=O)nc2c(C(N)=O)cnn12 [I-37] | < 0.2 | < 50 | < 50 | – |

| SMILES | Kd [1] [nM] | inhibition at 10 µM (Tyk2 kinase domain (DH1); compound at 10 μM, ATP 10 μM) [%] | inhibition at 10 µM (JAK2 kinase domain (JH1); compound at 10 μM, ATP 10 μM) [%] | other results |
| --- | --- | --- | --- | --- |
| [2H]C([2H])([2H])Oc1ncccc1Nc1cc(NC)n2ncc(C(=O)NC(C)(C)C#N)c2n1 [I-493, N-(2-cyanopropan-2-yl)-5-((2-(methoxy-d3)pyridin-3-yl)amino)-7-(methylamino)pyrazolo[1,5-a]pyrimidine-3-carboxamide] | 0.2 to 1 | < 50 | < 50 | – |
| CNc1cc(Nc2cccn([C@@H]3CCC[C@@H](OC)C3)c2=O)nc2c(C(=O)N[C@@H]3C[C@@H]3F)cnn12 [I-1043] | 0.2 to 1 | – | – | inhibition at 10 µM (Tyk2 kinase domain (DH1); 10 μM compound, 10 μM ATP): < 50%; inhibition at 10 µM (JAK2 kinase domain (JH1); 10 μM compound, 10 μM ATP): < 50% |
| CNc1cc(Nc2cccn([C@H]3CC[C@@H]3OC)c2=O)nc2c(C(=O)N[C@@H]3C[C@@H]3F)cnn12 [I-997] | < 0.2 | – | – | Tyk2 JH1% Inhibition @ 10 μM (Tyk2 kinase domain (DH1); 10 μM compound, 10 μM ATP): A (percent inhibition at 10 μM lower than 50); JAK2 JH1% Inhibition @ 10 μM (JAK2 kinase domain (JH1); 10 μM compound, 10 μM ATP): A (percent inhibition at 10 μM lower than 50) |
| CNc1cc(Nc2cccn(C(C)C)c2=O)nc2c(C(=O)N[C@H]3CC[C@@H]3O)cnn12 [I-982] | 0.2 to 1 | – | – | inhibition at 10 µM (Tyk2 kinase domain (DH1); 10 μM compound, 10 μM ATP): < 50%; inhibition at 10 µM (JAK2 kinase domain (JH1); 10 μM compound, 10 μM ATP): < 50% |
| CNc1cc(Nc2cccnc2OC2CCOCC2)nc2c(C(=O)NC3CCC3)cnn12 [I-185] | 0.2 to 1 | < 50 | < 50 | – |
| CNc1cc(Nc2cccnc2OC)nc2c(C(=O)N[C@@H]3CCC[C@@H](O)C3)cnn12 [I-497] | < 0.2 | – | – | Tyk2 JH1% Inhibition @ 10 μM (Tyk2 kinase domain (DH1); compound at 10 μM, ATP 10 μM): A (percent inhibition at 10 μM lower than 50); JAK2 JH1% Inhibition @ 10 μM (JAK2 kinase domain (JH1); compound at 10 μM, ATP 10 μM): A (percent inhibition at 10 μM lower than 50) |
| CNc1cc(Nc2cccn([C@@H]3CCCN(CCF)C3)c2=O)nc2c(C(=O)NC3CC3)cnn12 [I-881] | 0.2 to 1 | – | – | inhibition at 10 µM (Tyk2 kinase domain (DH1); 10 μM compound, 10 μM ATP): < 50%; inhibition at 10 µM (JAK2 kinase domain (JH1); 10 μM compound, 10 μM ATP): < 50% |
| CNc1cc(-n2cc(N3CCN(C)CC3)c3ncccc32)nc2c(C(=O)NC3CC3)cnn12 [I-574] | 1 to 10 | < 50 | < 50 | – |
| CNc1cc(Nc2cccn([C@H]3CC[C@@H](N4CCOCC4)CC3)c2=O)nc2c(C(N)=O)cnn12 [I-68] | 0.2 to 1 | < 50 | < 50 | – |
| CNc1cc(Nc2cccn([C@H]3CC[C@@H](OC)CC3)c2=O)nc2c(C(=O)NC3CCC3)cnn12 [I-358] | < 0.2 | < 50 | < 50 | – |
| CNc1cc(Nc2cccn(-c3ccc(F)cc3)c2=O)nc2c(C(=O)NCC(C)(C)CO)cnn12 [I-245] | < 0.2 | < 50 | < 50 | – |
| CNc1cc(Nc2cccn([C@H]3CCN(CCC#N)C3)c2=O)nc2c(C(=O)NC3CC3)cnn12 [I-1011] | 0.2 to 1 | – | – | inhibition at 10 µM (Tyk2 kinase domain (DH1); 10 μM compound, 10 μM ATP): < 50%; inhibition at 10 µM (JAK2 kinase domain (JH1); 10 μM compound, 10 μM ATP): < 50% |
| CNc1cc(Nc2cccn([C@@H]3CCCOC3)c2=O)nc2c(C(=O)N[C@H]3CC[C@H](O)C3)cnn12 [I-738] | 0.2 to 1 | – | – | Tyk2 JH1% Inhibition @ 10 μM (Tyk2 kinase domain (DH1); compound at 10 μM, ATP 10 μM): A (percent inhibition at 10 μM lower than 50); JAK2 JH1% Inhibition @ 10 μM (JAK2 kinase domain (JH1); compound at 10 μM, ATP 10 μM): A (percent inhibition at 10 μM lower than 50) |
| CNc1cc(-c2nn(C3CCOCC3)c3ncccc23)nc2c(C(=O)NC3CC3)cnn12 [I-441] | 0.2 to 1 | < 50 | < 50 | – |
| CNc1cc(-c2cn(C(C)C)c3ncccc23)nc2c(C(=O)N[C@H]3COC[C@H]3O)cnn12 [I-841, N-((3S,4S)-4-hydroxytetrahydrofuran-3-yl)-5-(1-isopropyl-1H-pyrrolo[2,3-b]pyridin-3-yl)-7-(methylamino)pyrazolo[1,5-a]pyrimidine-3-carboxamide] | 1 to 10 | – | – | inhibition at 10 µM (Tyk2 kinase domain (DH1); 10 μM compound, 10 μM ATP): < 50%; inhibition at 10 µM (JAK2 kinase domain (JH1); 10 μM compound, 10 μM ATP): < 50% |
| CNc1cc(Nc2cccn([C@H]3CCOC[C@H]3OC)c2=O)nc2c(C(=O)NC3CC3)cnn12 [I-595] | 1 to 10 | < 50 | < 50 | – |
| CNc1cc(Nc2cccn([C@@H]3CCOC3)c2=O)nc2c(C(=O)NC3CC3)cnn12 [I-202] | 0.2 to 1 | < 50 | < 50 | – |
| CNc1cc(Nc2cccn([C@H]3CCCOC3)c2=O)nc2c(C(=O)N[C@H]3CCC[C@H](O)C3)cnn12 (stereo in doubt) [I-704, N-(3-hydroxycyclohexyl)-7-(methylamino)-5-((2-oxo-1-((R)-tetrahydro-2H-pyran-3-yl)-1,2-dihydropyridin-3-yl)amino)pyrazolo[1,5-a]pyrimidine-3-carboxamide] | 0.2 to 1 | < 50 | < 50 | – |
| CNc1cc(-c2cn(CCN3CCOCC3)c3ncccc23)nc2c(C(=O)N[C@H]3CC[C@@H]3O)cnn12 [I-836] | 0.2 to 1 | – | – | inhibition at 10 µM (Tyk2 kinase domain (DH1); 10 μM compound, 10 μM ATP): < 50%; inhibition at 10 µM (JAK2 kinase domain (JH1); 10 μM compound, 10 μM ATP): < 50% |
| CNc1cc(Nc2cccn([C@H]3CC[C@@](C)(O)CC3)c2=O)nc2c(C(=O)NC3CC3)cnn12 [I-414] | 0.2 to 1 | < 50 | < 50 | – |
| CNc1cc(Nc2cccn(-c3ccc(F)cn3)c2=O)nc2c(C(N)=O)cnn12 [I-48] | 0.2 to 1 | < 50 | < 50 | – |
| CNc1cc(-n2cc(N3CCN(C)CC3)c3ncccc32)nc2c(C(=O)N[C@H]3C[C@H]3F)cnn12 [I-575] | 1 to 10 | < 50 | < 50 | – |
